Measurements from BindingDB's records for doi:10.1074/jbc.M805358200 (University of Pittsburgh, 2008).

Tests used:
Test in all cases: IMAP-Based HTS FP Assay/ TR-FRET Assay
[1] = target: Serine/threonine-protein kinase PLK1 (Homo sapiens, UniProt P53350)
Description: (§1) An IMAP-based PKD HTS FR assay was used for primary HTS of the PMLSC library to identify hit compounds and subsequent secondary hit confirmation studies.

[2] = target: T1, Serine/threonine-protein kinase D1 (Homo sapiens, UniProt Q15139)
T1 sequence (Q15139 whole entry): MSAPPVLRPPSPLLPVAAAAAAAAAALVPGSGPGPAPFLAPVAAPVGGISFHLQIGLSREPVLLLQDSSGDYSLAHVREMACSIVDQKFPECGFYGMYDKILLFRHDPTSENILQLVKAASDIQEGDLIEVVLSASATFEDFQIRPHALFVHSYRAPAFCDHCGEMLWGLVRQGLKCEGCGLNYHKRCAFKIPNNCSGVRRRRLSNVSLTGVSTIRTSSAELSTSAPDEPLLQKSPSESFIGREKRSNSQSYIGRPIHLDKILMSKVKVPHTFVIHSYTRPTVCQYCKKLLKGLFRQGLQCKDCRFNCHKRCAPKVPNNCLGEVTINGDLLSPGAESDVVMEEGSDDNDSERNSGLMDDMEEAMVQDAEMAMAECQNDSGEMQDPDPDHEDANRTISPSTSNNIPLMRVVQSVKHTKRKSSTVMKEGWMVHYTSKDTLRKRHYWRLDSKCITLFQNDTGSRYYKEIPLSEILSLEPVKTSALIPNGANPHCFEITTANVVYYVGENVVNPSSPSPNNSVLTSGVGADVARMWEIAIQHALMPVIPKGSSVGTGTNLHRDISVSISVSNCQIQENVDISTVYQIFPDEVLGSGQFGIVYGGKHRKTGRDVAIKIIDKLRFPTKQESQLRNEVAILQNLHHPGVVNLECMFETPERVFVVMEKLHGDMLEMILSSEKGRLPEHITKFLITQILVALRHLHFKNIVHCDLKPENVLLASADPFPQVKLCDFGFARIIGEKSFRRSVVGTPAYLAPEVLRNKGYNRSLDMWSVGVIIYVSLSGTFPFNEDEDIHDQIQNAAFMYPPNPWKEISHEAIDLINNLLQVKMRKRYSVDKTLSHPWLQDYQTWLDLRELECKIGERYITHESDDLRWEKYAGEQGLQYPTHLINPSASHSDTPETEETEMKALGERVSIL
Description: as §1

[3] = target: RAC-alpha serine/threonine-protein kinase (Homo sapiens, UniProt P31749)
Description: as §1

[4] = target: Cyclin-dependent kinase 7 (Homo sapiens, UniProt P50613)
Description: as §1

Cyclin-dependent kinase 7, sequence (P50613 whole entry): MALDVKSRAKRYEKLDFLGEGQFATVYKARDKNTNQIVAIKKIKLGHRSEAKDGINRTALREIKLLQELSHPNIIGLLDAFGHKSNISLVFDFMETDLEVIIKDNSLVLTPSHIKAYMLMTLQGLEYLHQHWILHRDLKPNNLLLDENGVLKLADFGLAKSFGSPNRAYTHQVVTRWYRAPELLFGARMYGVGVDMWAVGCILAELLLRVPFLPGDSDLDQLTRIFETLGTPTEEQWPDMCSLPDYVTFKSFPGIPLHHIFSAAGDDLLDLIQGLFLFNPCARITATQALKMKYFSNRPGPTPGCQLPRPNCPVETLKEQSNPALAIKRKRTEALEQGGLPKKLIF
Serine/threonine-protein kinase PLK1, sequence (P53350 whole entry): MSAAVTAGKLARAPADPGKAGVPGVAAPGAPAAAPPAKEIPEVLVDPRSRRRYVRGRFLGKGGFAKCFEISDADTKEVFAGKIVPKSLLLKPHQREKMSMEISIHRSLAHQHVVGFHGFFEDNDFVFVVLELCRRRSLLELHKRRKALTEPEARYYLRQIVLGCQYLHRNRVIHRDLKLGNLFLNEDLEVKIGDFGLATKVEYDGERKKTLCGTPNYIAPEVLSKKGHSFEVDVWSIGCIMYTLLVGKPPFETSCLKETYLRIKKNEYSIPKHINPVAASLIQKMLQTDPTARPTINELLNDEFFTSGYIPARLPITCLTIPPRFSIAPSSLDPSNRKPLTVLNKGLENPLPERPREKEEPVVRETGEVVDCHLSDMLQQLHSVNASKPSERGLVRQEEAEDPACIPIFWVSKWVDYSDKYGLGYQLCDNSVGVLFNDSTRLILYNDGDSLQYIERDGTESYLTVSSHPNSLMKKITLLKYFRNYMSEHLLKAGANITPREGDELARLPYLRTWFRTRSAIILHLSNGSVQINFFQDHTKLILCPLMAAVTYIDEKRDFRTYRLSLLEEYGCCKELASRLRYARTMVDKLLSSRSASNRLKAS
RAC-alpha serine/threonine-protein kinase, sequence (P31749 whole entry): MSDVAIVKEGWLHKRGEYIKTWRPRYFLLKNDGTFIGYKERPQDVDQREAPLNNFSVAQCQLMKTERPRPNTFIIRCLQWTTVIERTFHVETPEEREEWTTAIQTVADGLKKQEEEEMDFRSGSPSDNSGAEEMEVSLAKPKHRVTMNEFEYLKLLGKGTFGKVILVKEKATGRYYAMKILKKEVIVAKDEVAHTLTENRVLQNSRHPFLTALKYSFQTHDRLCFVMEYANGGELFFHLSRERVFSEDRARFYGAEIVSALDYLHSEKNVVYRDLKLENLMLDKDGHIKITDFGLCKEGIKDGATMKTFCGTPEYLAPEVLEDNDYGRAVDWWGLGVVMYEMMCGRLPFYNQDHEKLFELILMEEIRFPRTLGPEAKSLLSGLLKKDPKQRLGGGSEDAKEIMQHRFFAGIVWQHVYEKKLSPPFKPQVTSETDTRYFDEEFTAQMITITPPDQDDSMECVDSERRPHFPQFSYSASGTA

In the case of `O=C1NCCCc2c1oc1ccc(O)cc21` [7-hydroxy-2,3,4,5-tetrahydro-[1]benzofuro[2,3-c]azepin-1-one], the IC50 [1] is reported as 20.3 µM, the IC50 [2] is reported as 0.5 µM and the IC50 [3] is reported as > 50 µM. It also gave an IC50 [4] of 15.3 µM.
With `O=c1oc2ccc(O)cc2c2c1NCCC2` [CID 797718] the IC50 [1] was 21.9 µM, the IC50 [3] was > 50 µM and the IC50 [4] was 8.4 µM.
